Results taken from ChEMBL document CHEMBL1201862, “PubChem BioAssay data set” (2004).
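Step 1: Grow cells in 96-well plates. Step 2: Expose to compound for 48 hours at 5 concentrations. Step 3: Interpolate endpoints linearly; if unreached, use highest concentration. GI50: concentration for 50% inhibition of growth.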 Activity calls are given as the source filed them. Rule as the data show it: active = GI50 up to about 1.1 µM and inactive = higher.

Key:
Test in all cases: NCI-60 cell line screen, 48 h
[1] = test system: 786-0
[2] = test system: A498
[3] = test system: A549
[4] = test system: ACHN
[5] = test system: BT-549
[6] = test system: CAKI-1
[7] = test system: CCRF-CEM
[8] = test system: COLO 205
[9] = test system: DU-145
[10] = test system: EKVX
[11] = test system: HCC 2998
[12] = test system: HCT-116
[13] = test system: HCT-15
[14] = test system: HL-60
[15] = test system: HOP-62
[16] = test system: HOP-92
[17] = test system: HT-29
[18] = test system: Hs-578T
[19] = test system: IGROV-1
[20] = test system: K562
[21] = test system: KM12
[22] = test system: LOX IMVI
[23] = test system: M14
[24] = test system: MCF7
[25] = test system: MDA-MB-231
[26] = test system: MDA-MB-435
[27] = test system: MDA-N
[28] = test system: MOLT-4
[29] = test system: Malme-3M
[30] = test system: NCI-H226
[31] = test system: NCI-H23
[32] = test system: NCI-H522
[33] = test system: NCI/ADR-RES
[34] = test system: OVCAR-3
[35] = test system: OVCAR-4
[36] = test system: OVCAR-5
[37] = test system: OVCAR-8
[38] = test system: PC-3
[39] = test system: RPMI-8226
[40] = test system: RXF 393
[41] = test system: SF-268
[42] = test system: SF-295
[43] = test system: SF-539
[44] = test system: SK-MEL-28
[45] = test system: SK-MEL-2
[46] = test system: SK-MEL-5
[47] = test system: SK-OV-3
[48] = test system: SN12C
[49] = test system: SNB-19
[50] = test system: SNB-75
[51] = test system: SR
[52] = test system: SW-620
[53] = test system: T47D
[54] = test system: TK-10
[55] = test system: U-251
[56] = test system: UACC-257
[57] = test system: UACC-62
[58] = test system: UO-31
[59] = test system: NCI-H460

For `CC(O)c1cc2c(s1)C(=O)c1ccsc1C2=O` (stereo unspecified), the GI50 [1] was 665 nM (active), the GI50 [2] was 1530 nM (inactive) and the GI50 [3] was 189 nM (active). For the same compound, the GI50 [4] was 117 nM (active), the GI50 [5] was 81.5 nM (active) and the GI50 [6] was 695 nM (active). For the same compound, the GI50 [7] was 259 nM (active), the GI50 [8] was 1770 nM (inactive) and the GI50 [9] was 48.9 nM (active). For the same compound, the GI50 [10] was 229 nM (active), the GI50 [11] was 223 nM (active) and the GI50 [12] was 210 nM (active). The GI50 [13] was 40.9 nM, the GI50 [14] was 14.4 nM (active) and the GI50 [15] was 142 nM (active). For the same compound, the GI50 [16] was 265 nM (active), the GI50 [17] was 210 nM (active) and the GI50 [18] was 107 nM (active). For the same compound, the GI50 [19] was 468 nM (active), the GI50 [20] was 122 nM (active) and the GI50 [21] was 508 nM (active). The GI50 [22] was 12.5 nM (active), the GI50 [23] was 59.3 nM (active) and the GI50 [24] was 45.7 nM (active). For the same compound, the GI50 [25] was 96.4 nM (active), the GI50 [26] was < 10 nM (active) and the GI50 [27] was 13.9 nM (active). For the same compound, the GI50 [28] was 213 nM (active), the GI50 [29] was 19.7 nM (active) and the GI50 [30] was 480 nM (active). The GI50 [31] was 16.9 nM (active), the GI50 [32] was 117 nM (active) and the GI50 [33] was 211 nM (active). The GI50 [34] was 52.2 nM (active), the GI50 [35] was 212 nM (active) and the GI50 [36] was 140 nM (active). The GI50 [37] was 220 nM (active), the GI50 [38] was 63.2 nM (active) and the GI50 [39] was 123 nM (active). For the same compound, the GI50 [40] was 213 nM (active), the GI50 [41] was 162 nM (active) and the GI50 [42] was 46.7 nM (active). The GI50 [43] was 50.9 nM (active), the GI50 [44] was 21.6 nM (active) and the GI50 [45] was 126 nM (active). The GI50 [46] was < 12.2 nM (active), the GI50 [47] was 2700 nM (inactive) and the GI50 [48] was 104 nM (active). For the same compound, the GI50 [49] was 241 nM (active), the GI50 [50] was 64.9 nM (active) and the GI50 [51] was 103 nM (active). The GI50 [52] was 138 nM (active), the GI50 [53] was 316 nM (active) and the GI50 [54] was 461 nM (active). The GI50 [55] was 94.4 nM (active), the GI50 [56] was 16.7 nM (active) and the GI50 [57] was 26.2 nM (active). For the same compound, the GI50 [58] was 212 nM (active).
`CC1(C)C/C=C\CCC(O)C(O)CCC(C)(C)C1=O` (stereo unspecified) was tested, and the GI50 [1] was > 100000 nM (inactive), the GI50 [2] was > 100000 nM (inactive) and the GI50 [3] was > 100000 nM (inactive). The GI50 [4] was > 100000 nM (inactive), the GI50 [5] was > 100000 nM (inactive) and the GI50 [6] was > 100000 nM (inactive). For the same compound, the GI50 [7] was > 100000 nM (inactive), the GI50 [8] was > 100000 nM (inactive) and the GI50 [9] was > 100000 nM (inactive). The GI50 [10] was > 100000 nM (inactive), the GI50 [11] was 17100 nM (inactive) and the GI50 [12] was > 100000 nM (inactive). The GI50 [13] was greater than 100000 nM, the GI50 [14] was > 100000 nM (inactive) and the GI50 [15] was > 100000 nM (inactive). For the same compound, the GI50 [16] was > 100000 nM (inactive), the GI50 [17] was > 100000 nM (inactive) and the GI50 [18] was > 100000 nM (inactive). The GI50 [19] was > 100000 nM (inactive), the GI50 [20] was > 100000 nM (inactive) and the GI50 [21] was > 100000 nM (inactive). For the same compound, the GI50 [22] was > 100000 nM (inactive), the GI50 [24] was > 100000 nM (inactive) and the GI50 [25] was > 100000 nM (inactive). For the same compound, the GI50 [26] was > 100000 nM (inactive), the GI50 [27] was > 100000 nM (inactive) and the GI50 [28] was > 100000 nM (inactive). The GI50 [29] was > 100000 nM (inactive), the GI50 [30] was > 100000 nM (inactive) and the GI50 [31] was > 100000 nM (inactive). The GI50 [59] was > 100000 nM (inactive), the GI50 [32] was 62200 nM (inactive) and the GI50 [33] was > 100000 nM (inactive). The GI50 [34] was > 100000 nM (inactive), the GI50 [35] was > 100000 nM (inactive) and the GI50 [36] was > 100000 nM (inactive). For the same compound, the GI50 [37] was > 100000 nM (inactive), the GI50 [38] was > 100000 nM (inactive) and the GI50 [39] was > 100000 nM (inactive). The GI50 [40] was > 100000 nM (inactive), the GI50 [41] was > 100000 nM (inactive) and the GI50 [42] was > 100000 nM (inactive). For the same compound, the GI50 [43] was > 100000 nM (inactive), the GI50 [44] was > 100000 nM (inactive) and the GI50 [45] was > 100000 nM (inactive). The GI50 [46] was > 100000 nM (inactive), the GI50 [47] was > 100000 nM (inactive) and the GI50 [48] was > 100000 nM (inactive). For the same compound, the GI50 [49] was > 100000 nM (inactive), the GI50 [50] was > 100000 nM (inactive) and the GI50 [51] was > 100000 nM (inactive). The GI50 [52] was > 100000 nM (inactive), the GI50 [53] was > 100000 nM (inactive) and the GI50 [54] was > 100000 nM (inactive). The GI50 [55] was > 100000 nM (inactive), the GI50 [56] was > 100000 nM (inactive) and the GI50 [57] was > 100000 nM (inactive). For the same compound, the GI50 [58] was > 100000 nM (inactive).
